The NIST ThermoML archive (doi:10.1016/j.jct.2018.08.005)
± gives the expanded uncertainty stated by the source.

Experiment: xn = mol fraction of the nth substance listed
Settings: Liquid; for mass density: Vibrating tube method; for speed of sound: Frequency=3 MHz, Pulse-echo method

CCOC(F)(C(F)(F)C(F)(F)C(F)(F)F)C(F)(C(F)(F)F)C(F)(F)F (stereo not given) [2-trifluoromethyl-3-ethoxydodecafluorohexane] + CC(C)OC(C)C
Settings	mass density, x1 = 0.25 [kg/m3]	mass density, x1 = 0.375 [kg/m3]	mass density, x1 = 0.5 [kg/m3]	mass density, x1 = 0.625 [kg/m3]	mass density, x1 = 0.75 [kg/m3]	speed of sound, x1 = 0.25 [m/s]	speed of sound, x1 = 0.375 [m/s]	speed of sound, x1 = 0.5 [m/s]	speed of sound, x1 = 0.625 [m/s]	speed of sound, x1 = 0.75 [m/s]
333.15 K, 100000 kPa	–	–	–	–	1580.9 ± 2.7	–	–	–	–	–
333.15 K, 110000 kPa	1138.5 ± 1	1274.2 ± 1.5	1393.9 ± 2	1499.9 ± 2.5	1591.8 ± 2.9	–	–	–	–	–
333.15 K, 120000 kPa	1146.4 ± 1.1	1282.9 ± 1.6	1403.2 ± 2.2	1509.7 ± 2.7	1602.1 ± 3.2	–	–	–	–	–
333.15 K, 130000 kPa	1153.9 ± 1.1	1291.2 ± 1.8	1412.1 ± 2.4	1519.2 ± 3	1611.9 ± 3.5	–	–	–	–	–
333.15 K, 140000 kPa	1160.9 ± 1.2	1299 ± 1.9	1420.5 ± 2.6	1528.1 ± 3.2	1621.2 ± 3.8	–	–	–	–	–
343.15 K, 100 kPa	–	1091.4 ± 0.8	1197 ± 0.8	1291.8 ± 0.8	1376.3 ± 0.8	–	588 ± 2.2	563 ± 2.2	550.5 ± 2.2	540.2 ± 2.2
343.15 K, 10000 kPa	1000.6 ± 0.8	1121.3 ± 0.8	1229.2 ± 0.8	1325.6 ± 0.8	1411.1 ± 0.8	–	–	–	–	–
343.15 K, 20000 kPa	1021.9 ± 0.8	1145.1 ± 0.8	1254.7 ± 0.8	1352.4 ± 0.9	1438.8 ± 0.9	792.6 ± 2.2	745.6 ± 2.2	714 ± 2.2	697.6 ± 2.1	681.6 ± 2.1
343.15 K, 30000 kPa	1039.6 ± 0.8	1164.8 ± 0.8	1275.9 ± 0.9	1374.8 ± 0.9	1462 ± 1	–	–	–	–	–
343.15 K, 40000 kPa	1055.2 ± 0.8	1182.1 ± 0.8	1294.4 ± 0.9	1394.4 ± 1.1	1482.3 ± 1.2	911.7 ± 2.2	858.7 ± 2.2	822.8 ± 2.1	803.3 ± 2.1	783.8 ± 2.1
343.15 K, 50000 kPa	1068.8 ± 0.8	1197.3 ± 0.9	1310.8 ± 1	1411.7 ± 1.2	1500.3 ± 1.4	–	–	–	–	–
343.15 K, 60000 kPa	1081.1 ± 0.8	1210.9 ± 1	1325.4 ± 1.2	1427.3 ± 1.4	1516.5 ± 1.6	1007.3 ± 2.2	949.5 ± 2.2	911 ± 2.1	889.2 ± 2.1	867 ± 2.1
343.15 K, 70000 kPa	1092.4 ± 0.8	1223.4 ± 1	1338.9 ± 1.3	1441.4 ± 1.6	1531.3 ± 1.8	–	–	–	–	–
343.15 K, 80000 kPa	1102.8 ± 0.9	1234.9 ± 1.1	1351.3 ± 1.4	1454.6 ± 1.8	1544.9 ± 2.1	1089.6 ± 2.2	1026.7 ± 2.2	987 ± 2.1	963.1 ± 2.1	938.2 ± 2.1
343.15 K, 90000 kPa	1112.5 ± 0.9	1245.7 ± 1.2	1362.8 ± 1.6	1466.8 ± 2	1557.6 ± 2.3	–	–	–	–	–
343.15 K, 100000 kPa	1121.5 ± 0.9	1255.8 ± 1.3	1373.5 ± 1.8	1478.2 ± 2.2	1569.5 ± 2.6	1161.8 ± 2.2	1095.1 ± 2.1	1054.1 ± 2.1	1028.7 ± 2.1	1001.7 ± 2.1
343.15 K, 110000 kPa	1130.1 ± 1	1265.3 ± 1.4	1383.8 ± 2	1489.1 ± 2.5	1580.8 ± 2.9	–	–	–	–	–
343.15 K, 120000 kPa	1138.2 ± 1	1274.2 ± 1.6	1393.3 ± 2.2	1499.3 ± 2.7	1591.4 ± 3.2	–	–	–	–	–
343.15 K, 130000 kPa	1145.9 ± 1.1	1282.7 ± 1.7	1402.5 ± 2.4	1509.1 ± 2.9	1601.6 ± 3.4	–	–	–	–	–
343.15 K, 140000 kPa	1153.3 ± 1.2	1290.7 ± 1.9	1411.2 ± 2.6	1518.2 ± 3.2	1611.2 ± 3.7	–	–	–	–	–
353.15 K, 100 kPa	–	–	–	–	–	–	–	–	–	512.6 ± 2.2
